Measured values from EP4650362A1, “NEUROPROTECTIVE PSD-95 POLYPEPTIDE INHIBITOR AND USE THEREOF” (Beijing Tuo Jie Biopharmaceutical Co. Ltd., priority 2023, dated 2024).
Non-standard residues stand in square brackets, D forms with d. Residues, ends and D or L forms follow the SMILES beside them. No end group written: not given here. Tle = CC(C)(C)[C@H](N)C(=O)O; Dab = NCC[C@H](N)C(=O)O; Aib = CC(C)(N)C(=O)O

Tested on: rat red blood cell suspensions
Assay: hemolysis risk test in rat whole blood
Format: cell-based
Details: for Hemolysis rate (%): Rat, 37 °C 1 h; for hemolysis rates: rat whole blood, concentration range of 1 to 50 µM
From the text: Hemolysis refers to the phenomenon in which the membrane of erythrocytes is destroyed, along with increased transparency and a dark red appearance. Certain pharmaceutical ingredients, excipients, etc. may contain hemolytic components, which may cause hemolysis in the human body and cause adverse reactions such as local swelling and blood circulation dysfunction. On the basis of the principle that the hemoglobin released from lysed red blood cells has absorption in the visible light wave band, test compound solutions were added to rat red blood cell suspensions, and after incubation, the degrees of hemolysis were determined using a microplate reader.
This test example assessed whether a polypeptide compound causes hemolytic reactions in rat, rabbit, and human whole blood.
Preparation of red blood cell suspension: 100 µL of fresh whole blood was collected, and 900 µL of 1× PBS solution was then added. The mixture was shaken on a plate shaker at 30 rpm for 5 min and then centrifuged at 1000 g for 5 min, and the supernatant was discarded. The above washing step was repeated until the supernatant no longer appeared red. The suspension was set aside for later use.
Preparation of test polypeptide solutions: An appropriate amount of 1× PBS solution was added to a powdered polypeptide, and the polypeptide was dissolved to form a standard stock solution. […] Meanwhile, blank 1× PBS was used as a negative control, and a 1× PBS solution containing 0.1% Triton X-100 was used as a positive control.
Incubation: A test solution (500 µL) was added to the red blood cell suspension, and then the mixture was well shaken on a plate shaker at 30 rpm for 5 min, incubated at 37 °C for 1 h, and centrifuged at 1000 g for 5 min.
100 µL of the supernatant was transferred to a single well of a microplate. The absorbance at 540 nm was measured using a SpectraMax M5 microplate reader, and data analysis was performed using GraphPad Prism 9. The hemolysis rate (%) was calculated using the formula: (test sample absorbance - negative control absorbance) / (positive control absorbance - negative control absorbance) × 100%. A rate of less than 5% indicates the absence of hemolysis, while a rate of greater than 5% indicates the presence of hemolysis. Table 3. Testing of the hemolysis risk of the polypeptide compound

`CC(C)[C@H](NC(=O)[C@H](CC(=O)O)NC(=O)[C@@H](NC(=O)[C@@H](NC(=O)[C@@H](NC(=O)[C@@H](NC(=O)[C@H](CCN)NC(=O)C(C)(C)NC(=O)CNC(=O)[C@@H](CCCNC(=N)N)NC(=O)[C@@H](CCCNC(=N)N)NC(=O)[C@@H](CCCNC(=N)N)NC(=O)[C@@H](CCC(N)=O)NC(=O)[C@@H](CCCNC(=N)N)NC(=O)[C@@H](CCCNC(=N)N)NC(=O)[C@@H](CCCCN)NC(=O)[C@@H](CCCCN)NC(=O)[C@@H](CCCNC(=N)N)NC(=O)CNC(=O)[C@H](N)Cc1ccc(O)cc1)[C@@H](C)O)C(C)(C)C)C(C)(C)C)[C@@H](C)O)C(=O)O` [Polypeptide compound 14, y-G-r-k-k-r-r-q-r-r-r-G-Aib-Dab-T-Tle-Tle-T-D-V] (H-[dY]G[dR][dK][dK][dR][dR][dQ][dR][dR][dR]G[Aib][Dab]T[Tle][Tle]TDV-OH) was tested, and the “Hemolysis rate (%)” value (1.0 µM) was 0.11%, the “Hemolysis rate (%)” value (2.5 µM) was 0.17% and the “Hemolysis rate (%)” value (5.0 µM) was -0.11%. The “Hemolysis rate (%)” value (10 µM) was 0.00%, the “Hemolysis rate (%)” value (25 µM) was -0.16% and the “Hemolysis rate (%)” value (50 µM) was 0.12%. For the same compound, the hemolysis rates was “less than 5%”.
For “YGRKKRRQRRRKLSSIESDV [NA-1, YGRKKRRQR RRKLSSIESDV, reference compound]”, the “Hemolysis rate (%)” value (1.0 µM) was -0.12%, the “Hemolysis rate (%)” value (2.5 µM) was 0.03% and the “Hemolysis rate (%)” value (5.0 µM) was 0.50%. For the same compound, the “Hemolysis rate (%)” value (10 µM) was 0.48%, the “Hemolysis rate (%)” value (25 µM) was 0.34% and the “Hemolysis rate (%)” value (50 µM) was -0.46%. For the same compound, the hemolysis rates was “less than 5%”.
